Earlier results in patent publication US20150182481A1, “USE OF POLYMER D-LACTIC ACID (PDLA) TO TREAT PAIN” (priority 2013, published 2015).

What was measured:
C fibers = settings: 300 mM lactic acid injection
[1] = test system: nerve poisoned by iodoacetic acid (I.A.A.) and continuously tetanized; settings: I.A.A. solution containing lactate 180 mg/100 cc

C[C@@H](O)C(=O)O [d-lactic acid]
plasma d-lactate in asymptomatic exercising subjects (asymptomatic exercising subjects): 12 mM
average plasma concentration at which neurotoxic (reversible altered mental status, dysarthria, ataxia): 7.98 mM

C[C@H](O)C(=O)O [lactic acid, L-Lactic acid]
firing of C fibers (C fibers): increase firing of C fibers

CC(O)C(=O)[O-].[Na+] (stereo not shown) [sodium lactate]
effect on sustained galvanic contractions of the nerve [1]: enhances repeated nerve tetanization
